According to ChEMBL document CHEMBL5625213, “Novel acridine-based LSD1 inhibitors enhance immune response in gastric cancer” (Eur J Med Chem, 2023):
Values belong to the molecule of their own block, whether it stands above or below them. The source made the active and inactive calls. No cut-off for these calls is given here.

What was measured:
[1] = target: T1, Lysine-specific histone demethylase 1A (Homo sapiens, UniProt O60341); assay: Inhibition of recombinant LSD1 ( unknown origin) expressed in Escherichia coli BL21 (DE3) cells using H3K4me2 peptide as substrate incubated for 30 mins in presence of FAD by fluorescence microplate reader analysis
[2] = target: T1, Lysine-specific histone demethylase 1A; assay: Binding affinity to LSD1 in human BGC-823 cells assessed as thermal stability at 2 uM measured at 40 to 55 degreeC by cellular thermal shift assay; assay type: cell-based
[3] = target: T1, Lysine-specific histone demethylase 1A; assay: Inhibition of LSD1 in human BGC-823 cells assessed as induction of H3K4me1 accumulation at 0.5 to 2 uM incubated for 5 days by Western blot analysis; assay type: cell-based; details: dose 0.5-2 µM, time 5.0 day
[4] = target: T1, Lysine-specific histone demethylase 1A; assay: Inhibition of LSD1 in human BGC-823 cells assessed as induction of H3K4me2 accumulation at 0.5 to 2 uM incubated for 5 days by Western blot analysis; assay type: cell-based; details: dose 0.5-2 µM, time 5.0 day
[5] = tested on: BGC-823; assay: Inhibition of stemness in human BGC-823 cells assessed as inhibition of OCT4 expression at 0.5 to 2 uM by Western blot analysis; assay type: functional, cell-based; details: dose 0.5-2 µM
[6] = tested on: BGC-823; assay: Inhibition of stemness in human BGC-823 cells assessed as inhibition of SOX2 expression at 0.5 to 2 uM by Western blot analysis; assay type: functional, cell-based; details: dose 0.5-2 µM
[7] = tested on: BGC-823; assay: Inhibition of stemness in human BGC-823 cells assessed as inhibition of Nanog expression at 0.5 to 2 uM by Western blot analysis; assay type: functional, cell-based; details: dose 0.5-2 µM
[8] = tested on: BGC-823; assay: Inhibition of stemness in human BGC-823 cells assessed as inhibition of CD44 expression at 0.5 to 2 uM by Western blot analysis; assay type: functional, cell-based; details: dose 0.5-2 µM
[9] = tested on: BGC-823; assay: Inhibition of cell migration in human BGC-823 cells at 0.5 to 2 uM measured upto 48 hrs by fluorescence microscope based wound healing assay; assay type: functional; details: dose 0.5-2 µM
[10] = tested on: BGC-823; assay: Downregulation of PD-L1 level in human BGC-823 cells incubated for 5 days by Western blot analysis; assay type: functional, cell-based; details: dose 0.5-2 µM, time 5.0 day
[11] = tested on: MFC; assay: Downregulation of PD-L1 level in MFC cells incubated for 5 days by Western blot analysis; assay type: functional, cell-based; details: Mus musculus, dose 0.5-2 µM, time 5.0 day
[12] = tested on: BGC-823; assay: Downregulation of PD-L1 mRNA level in human BGC-823 cells at 0.5 to 2 uM incubated for 5 days by qRT-PCR analysis; assay type: functional, cell-based; details: dose 0.5-2 µM, time 5.0 day
[13] = tested on: MFC; assay: Downregulation of PD-L1 mRNA level in MFC cells at 0.5 to 2 uM incubated for 5 days by qRT-PCR analysis; assay type: functional, cell-based; details: Mus musculus, dose 0.5-2 µM, time 5.0 day
[14] = target: Programmed cell death protein 1/Programmed cell death 1 ligand 1 (Homo sapiens) (UniProt Q15116+Q9NZQ7); assay: Inhibition of Fc-tagged recombinant human PD-1 binding to PD-L1 in human BGC-823 cells incubated for 5 days by DAPI staining based confocal microscopic analysis; assay type: cell-based; details: dose 0.5-2 µM, time 5.0 day
[15] = tested on: BGC-823; assay: Cytotoxicity against human BGC-823 cells co-cultured with T cells assessed as reduction in cell viability pretreated for 5 days followed by co-incubation with T cells for 4 days by CCK8 assay; assay type: functional, cell-based; details: dose 0.5-2 µM, time 5.0 day
[16] = tested on: BGC-823; assay: Cytotoxicity against human BGC-823 cells co-cultured with T cells assessed as increase in 4-1BB mRNA level at 1 uM by qRT-PCR analysis; assay type: functional, cell-based
[17] = tested on: BGC-823; assay: Cytotoxicity against human BGC-823 cells co-cultured with T cells assessed as increase in CCR7 mRNA level at 1 uM by qRT-PCR analysis; assay type: functional, cell-based
[18] = tested on: BGC-823; assay: Cytotoxicity against human BGC-823 cells co-cultured with T cells assessed as increase in CCR10 mRNA level at 1 uM by qRT-PCR analysis; assay type: functional, cell-based
[19] = tested on: BGC-823; assay: Cytotoxicity against human BGC-823 cells co-cultured with T cells assessed as increase in IFN-gamma mRNA level at 1 uM by qRT-PCR analysis; assay type: functional, cell-based
[20] = tested on: BGC-823; assay: Cytotoxicity against human BGC-823 cells co-cultured with T cells assessed as increase in IL-2 mRNA level at 1 uM by qRT-PCR analysis; assay type: functional, cell-based
[21] = tested on: BGC-823; assay: Cytotoxicity against human BGC-823 cells co-cultured with T cells assessed as increase in TNF-alpha mRNA level at 1 uM by qRT-PCR analysis; assay type: functional, cell-based
[22] = Toxicity in 615 mouse implanted with MFC cells assessed as change in body weight upto 50 mg/kg, IG measured after 14 days; assay type: organism-based; details: in vivo, po, 336 h, time 14 day
[23] = Toxicity in 615 mouse implanted with MFC cells assessed as liver damage upto 50 mg/kg, IG measured after 14 days; assay type: organism-based; details: in vivo, po, 336 h, time 14 day
[24] = Toxicity in 615 mouse implanted with MFC cells assessed as kidney damage upto 50 mg/kg, IG measured after 14 days; assay type: organism-based; details: in vivo, po, 336 h, time 14 day
[25] = tested on: MFC; assay: Antitumor activity against MFC cells implanted in 615 mouse assessed as inhibition of tumor growth administered intragastrically for 14 days; assay type: functional, cell-based; details: dose 15-50 mg/kg, route ig, time 14.0 day
[26] = tested on: MFC; assay: Antitumor activity against MFC cells implanted in 615 mouse assessed as reduction in tumor size at 15 to 50 mg/kg, IG administered for 14 days; assay type: functional, organism-based; details: dose 15-50 mg/kg, time 14.0 day
[27] = tested on: MFC; assay: Antiproliferative activity against MFC cells assessed as inhibition of cell proliferation at 2 uM incubated for 5 days by CCK8 assay; assay type: functional; details: Mus musculus, 120 h, time 5 day
[28] = tested on: MFC; assay: Antitumor activity against MFC cells implanted in 615 mouse assessed as decrease in PD-L1 expression in tumor administered intragastrically for 14 days by Western blot analysis; assay type: functional, cell-based; details: dose 15-50 mg/kg, route ig, time 14.0 day
[29] = tested on: MFC; assay: Antitumor activity against MFC cells implanted in 615 mouse assessed as increase in IFN-gamma mRNA level at 15 to 50 mg/kg, IG administered for 14 days by qRT-PCR analysis; assay type: functional, organism-based; details: dose 15-50 mg/kg, time 14.0 day
[30] = tested on: MFC; assay: Antitumor activity against MFC cells implanted in 615 mouse assessed as increase in TNF-alpha mRNA level at 15 to 50 mg/kg, IG administered for 14 days by qRT-PCR analysis; assay type: functional, organism-based; details: dose 15-50 mg/kg, time 14.0 day
[31] = tested on: MFC; assay: Antitumor activity against MFC cells implanted in 615 mouse assessed as increase in IL-2 mRNA level at 15 to 50 mg/kg, IG administered for 14 days by qRT-PCR analysis; assay type: functional, organism-based; details: dose 15-50 mg/kg, time 14.0 day

- IC50 [1]: > 10 µM
Structure (SMILES): CN(C)c1ccc(Nc2c3ccccc3nc3c(N(C)C)cccc23)cc1

- IC50 [1]: 0.013 µM
- Activity [2]: Active
- inhibition [3]: Active
- inhibition [4]: Active
Structure (SMILES): Cc1ccc2nc3c(C)c(C)ccc3c(Nc3ccc(N(C)C)cc3)c2c1
- inhibition [5]: Active
- inhibition [6]: Active
- inhibition [7]: Active
- inhibition [8]: Active
- inhibition [9]: Active
- Activity [10]: Dose-Dependent Effect
- Activity [11]: Dose-Dependent Effect
- Activity [12]: Active
- Activity [13]: Active
- inhibition [14]: Dose-Dependent Effect
- Activity [15]: Dose-Dependent Effect
- Activity [16]: Active
- Activity [17]: Active
- Activity [18]: Active
- Activity [19]: Active
- Activity [20]: Active
- Activity [21]: Active
- Activity [22]: Non-Toxic
- Activity [23]: Non-Toxic
- Activity [24]: Non-Toxic
- Activity [25]: Dose-Dependent Effect
- Activity [26]: Active
- inhibition at 2 µM [27]: > 10%
- Activity [28]: Dose-Dependent Effect
- Activity [29]: Active
- Activity [30]: Active
- Activity [31]: Active

- IC50 [1]: > 10 µM
Structure (SMILES): CN(C)Cc1ccc(Nc2c3ccccc3nc3ccccc23)cc1

- IC50 [1]: > 10 µM
Structure (SMILES): Cc1ccc2c(Nc3ccc(N(C)C)cc3)c3ccc([N+](=O)[O-])cc3nc2c1C

- IC50 [1]: > 10 µM
Structure (SMILES): CN(C)C(=O)c1ccc(Nc2c3ccccc3nc3ccccc23)cc1
